According to ChEMBL document CHEMBL1147199, “Exploration of the correlation between the structure, hemolytic activity, and cytotoxicity of steroid saponins” (Bioorg Med Chem, 2007):

Assay: Cytotoxicity against human erythrocytes assessed as hemolytic activity after 60 mins
Assay type: cell-based, Erythrocyte
Details: read-out: HD50

Structure (SMILES) | HC50 at 1 h
CCCCCC(=O)O[C@H]1[C@H](O)[C@H](O)[C@@H](O[C@H]2[C@H](O)[C@@H](O[C@H]3O[C@H](C)[C@@H](O)[C@H](O)[C@@H]3O)[C@H](O[C@H]3CC[C@@]4(C)C(=CC[C@H]5[C@@H]6C[C@@H]7O[C@]8(CC[C@@H](C)CO8)[C@@H](C)[C@@H]7[C@@]6(C)CC[C@@H]54)C3)O[C@@H]2CO)O[C@@H]1C | 2.2 µM
C[C@@H]1CC[C@@]2(OC1)O[C@H]1C[C@H]3[C@@H]4CC=C5C[C@@H](O[C@@H]6O[C@H](CO[C@@H]7O[C@@H](C)[C@H](O)[C@@H](O)[C@H]7O)[C@@H](O)[C@H](O)[C@H]6O)CC[C@]5(C)[C@H]4CC[C@]3(C)[C@H]1[C@@H]2C | 28.6 µM
CCCCCC(=O)O[C@H]1C[C@@H]2[C@H](CC[C@]3(C)[C@@H]4[C@H](C[C@@H]23)O[C@]2(CC[C@@H](C)CO2)[C@H]4C)[C@@]2(C)C[C@@H](O)[C@H](O[C@@H]3O[C@H](CO)[C@@H](O[C@H]4O[C@H](C)[C@@H](O)[C@H](O)[C@@H]4O)[C@H](O)[C@H]3O[C@H]3O[C@H](C)[C@@H](O)[C@H](O)[C@@H]3O)C[C@H]12 | 7.6 µM
C[C@@H]1CC[C@@]2(OC1)O[C@H]1C[C@H]3[C@@H]4CC[C@H]5C[C@@H](O[C@@H]6O[C@H](CO)[C@H](O[C@H]7O[C@H](C)[C@@H](O)[C@H](O)[C@@H]7O)[C@H](O)[C@H]6O[C@@H]6O[C@@H](C)[C@H](O)[C@@H](O)[C@H]6O)[C@H](O)C[C@]5(C)[C@H]4CC[C@]3(C)[C@H]1[C@@H]2C | 9.6 µM
C/C=C/C=C/C(=O)NC[C@H]1O[C@@H](O[C@H]2CC[C@@]3(C)C(=CC[C@H]4[C@@H]5C[C@@H]6O[C@]7(CC[C@@H](C)CO7)[C@@H](C)[C@@H]6[C@@]5(C)CC[C@@H]43)C2)[C@H](O[C@H]2O[C@H](C)[C@@H](O)[C@H](O)[C@@H]2O)[C@@H](O)[C@@H]1O[C@H]1O[C@H](C)[C@@H](O)[C@H](O)[C@@H]1O | 9.3 µM
C=CCCCCCCCCC(=O)NC[C@H]1O[C@@H](O[C@H]2CC[C@@]3(C)C(=CC[C@H]4[C@@H]5C[C@@H]6O[C@]7(CC[C@@H](C)CO7)[C@@H](C)[C@@H]6[C@@]5(C)CC[C@@H]43)C2)[C@H](O[C@H]2O[C@H](C)[C@@H](O)[C@H](O)[C@@H]2O)[C@@H](O)[C@@H]1O[C@H]1O[C@H](C)[C@@H](O)[C@H](O)[C@@H]1O | > 50 µg/mL
C[C@@H]1CC[C@@]2(OC1)O[C@H]1C[C@H]3[C@@H]4CC[C@H]5C[C@@H](O[C@@H]6O[C@H](CO)[C@@H](O[C@H]7O[C@H](C)[C@@H](O)[C@H](O)[C@@H]7O)[C@H](O)[C@H]6O[C@H]6O[C@H](C)[C@@H](O)[C@H](O)[C@@H]6O)[C@H](O)C[C@]5(C)[C@H]4CC[C@]3(C)[C@H]1[C@@H]2C | 13.1 µM
CC(=O)O[C@H]1[C@H](O)[C@H](O)[C@@H](O[C@H]2[C@H](O)[C@@H](O[C@H]3O[C@H](C)[C@@H](O)[C@H](O)[C@@H]3O)[C@H](O[C@H]3CC[C@@]4(C)C(=CC[C@H]5[C@@H]6C[C@@H]7O[C@]8(CC[C@@H](C)CO8)[C@@H](C)[C@@H]7[C@@]6(C)CC[C@@H]54)C3)O[C@@H]2CO)O[C@@H]1C | 3.2 µM
C[C@@H]1CC[C@@]2(OC1)O[C@H]1C[C@H]3[C@@H]4CC[C@H]5C[C@@H](O[C@@H]6O[C@H](CO)[C@H](O)[C@H](O)[C@H]6O[C@H]6O[C@H](C)[C@@H](O)[C@H](O)[C@@H]6O)[C@H](O)C[C@]5(C)[C@H]4CC[C@]3(C)[C@H]1[C@@H]2C | 7.5 µM
C[C@@H]1CC[C@@]2(OC1)O[C@H]1C[C@H]3[C@@H]4CC=C5C[C@@H](O[C@@H]6O[C@H](CNC(=O)CCCCl)[C@@H](O[C@H]7O[C@H](C)[C@@H](O)[C@H](O)[C@@H]7O)[C@H](O)[C@H]6O[C@H]6O[C@H](C)[C@@H](O)[C@H](O)[C@@H]6O)CC[C@]5(C)[C@H]4CC[C@]3(C)[C@H]1[C@@H]2C | 20.9 µM
C[C@@H]1CC[C@@]2(OC1)O[C@H]1C[C@H]3[C@@H]4CC=C5C[C@@H](O[C@@H]6O[C@H](CNC(=O)c7ccccc7)[C@@H](O[C@H]7O[C@H](C)[C@@H](O)[C@H](O)[C@@H]7O)[C@H](O)[C@H]6O[C@H]6O[C@H](C)[C@@H](O)[C@H](O)[C@@H]6O)CC[C@]5(C)[C@H]4CC[C@]3(C)[C@H]1[C@@H]2C | 10.7 µM
C[C@@H]1CC[C@@]2(OC1)O[C@H]1C[C@H]3[C@@H]4CC=C5C[C@@H](O[C@@H]6O[C@H](CN=[N+]=[N-])[C@@H](O[C@H]7O[C@H](C)[C@@H](O)[C@H](O)[C@@H]7O)[C@H](O)[C@H]6O[C@H]6O[C@H](C)[C@@H](O)[C@H](O)[C@@H]6O)CC[C@]5(C)[C@H]4CC[C@]3(C)[C@H]1[C@@H]2C | > 50 µg/mL
C[C@@H]1CC[C@@]2(OC1)O[C@H]1C[C@H]3[C@@H]4CC=C5C[C@@H](O[C@@H]6O[C@H](CNC(=O)c7ccccc7I)[C@@H](O[C@H]7O[C@H](C)[C@@H](O)[C@H](O)[C@@H]7O)[C@H](O)[C@H]6O[C@H]6O[C@H](C)[C@@H](O)[C@H](O)[C@@H]6O)CC[C@]5(C)[C@H]4CC[C@]3(C)[C@H]1[C@@H]2C | 7.4 µM
CCCC(=O)O[C@H]1[C@H](O)[C@H](O)[C@@H](O[C@H]2[C@H](O)[C@@H](O[C@H]3O[C@H](C)[C@@H](O)[C@H](O)[C@@H]3O)[C@H](O[C@H]3CC[C@@]4(C)C(=CC[C@H]5[C@@H]6C[C@@H]7O[C@]8(CC[C@@H](C)CO8)[C@@H](C)[C@@H]7[C@@]6(C)CC[C@@H]54)C3)O[C@@H]2CO)O[C@@H]1C | 2.8 µM
C[C@@H]1CC[C@@]2(OC1)O[C@H]1C[C@H]3[C@@H]4CC=C5C[C@@H](O[C@@H]6O[C@H](CNC(=O)C(F)(F)F)[C@@H](O[C@H]7O[C@H](C)[C@@H](O)[C@H](O)[C@@H]7O)[C@H](O)[C@H]6O[C@H]6O[C@H](C)[C@@H](O)[C@H](O)[C@@H]6O)CC[C@]5(C)[C@H]4CC[C@]3(C)[C@H]1[C@@H]2C | 18.5 µM
CC(=O)OC[C@H]1O[C@H](O[C@H]2[C@H](O)[C@@H](O[C@H]3O[C@H](C)[C@@H](O)[C@H](O)[C@@H]3O)[C@H](O[C@H]3CC[C@@]4(C)C(=CC[C@H]5[C@@H]6C[C@@H]7O[C@]8(CC[C@@H](C)CO8)[C@@H](C)[C@@H]7[C@@]6(C)CC[C@@H]54)C3)O[C@@H]2CO)[C@@H](O)[C@@H]1OC(C)=O | 2.7 µM
CCCCCCCCCCCCCCCCCC(=O)NC[C@H]1O[C@@H](O[C@H]2CC[C@@]3(C)C(=CC[C@H]4[C@@H]5C[C@@H]6O[C@]7(CC[C@@H](C)CO7)[C@@H](C)[C@@H]6[C@@]5(C)CC[C@@H]43)C2)[C@H](O[C@H]2O[C@H](C)[C@@H](O)[C@H](O)[C@@H]2O)[C@@H](O)[C@@H]1O[C@H]1O[C@H](C)[C@@H](O)[C@H](O)[C@@H]1O | > 50 µg/mL
C[C@@H]1CC[C@@]2(OC1)O[C@H]1C[C@H]3[C@@H]4CC=C5C[C@@H](O[C@@H]6O[C@H](CNC(=O)c7ccc([N+](=O)[O-])cc7)[C@@H](O[C@H]7O[C@H](C)[C@@H](O)[C@H](O)[C@@H]7O)[C@H](O)[C@H]6O[C@H]6O[C@H](C)[C@@H](O)[C@H](O)[C@@H]6O)CC[C@]5(C)[C@H]4CC[C@]3(C)[C@H]1[C@@H]2C | 39 µM
C[C@@H]1CC[C@@]2(OC1)O[C@H]1C[C@H]3[C@@H]4CC=C5C[C@@H](O[C@@H]6O[C@H](CN)[C@@H](O[C@H]7O[C@H](C)[C@@H](O)[C@H](O)[C@@H]7O)[C@H](O)[C@H]6O[C@H]6O[C@H](C)[C@@H](O)[C@H](O)[C@@H]6O)CC[C@]5(C)[C@H]4CC[C@]3(C)[C@H]1[C@@H]2C | 24.8 µM
COc1ccc(C(=O)NC[C@H]2O[C@@H](O[C@H]3CC[C@@]4(C)C(=CC[C@H]5[C@@H]6C[C@@H]7O[C@]8(CC[C@@H](C)CO8)[C@@H](C)[C@@H]7[C@@]6(C)CC[C@@H]54)C3)[C@H](O[C@H]3O[C@H](C)[C@@H](O)[C@H](O)[C@@H]3O)[C@@H](O)[C@@H]2O[C@H]2O[C@H](C)[C@@H](O)[C@H](O)[C@@H]2O)cc1 | 9.5 µM
CCCCCCCCCC(=O)O[C@H]1C[C@@H]2[C@H](CC[C@]3(C)[C@@H]4[C@H](C[C@@H]23)O[C@]2(CC[C@@H](C)CO2)[C@H]4C)[C@@]2(C)C[C@@H](O)[C@H](O[C@@H]3O[C@H](CO)[C@@H](O[C@H]4O[C@H](C)[C@@H](O)[C@H](O)[C@@H]4O)[C@H](O)[C@H]3O[C@H]3O[C@H](C)[C@@H](O)[C@H](O)[C@@H]3O)C[C@H]12 | 6.7 µM
C[C@@H]1CC[C@@]2(OC1)O[C@H]1C[C@H]3[C@@H]4CC[C@H]5C[C@@H](O[C@@H]6O[C@H](CO)[C@@H](O[C@H]7O[C@H](C)[C@@H](O)[C@H](O)[C@@H]7O)[C@H](O)[C@H]6O[C@H]6O[C@H](C)[C@@H](O)[C@H](O)[C@@H]6O)CC[C@]5(C)[C@H]4CC[C@]3(C)[C@H]1[C@@H]2C | 3 µM
CC(=O)NC[C@H]1O[C@@H](O[C@H]2CC[C@@]3(C)C(=CC[C@H]4[C@@H]5C[C@@H]6O[C@]7(CC[C@@H](C)CO7)[C@@H](C)[C@@H]6[C@@]5(C)CC[C@@H]43)C2)[C@H](O[C@H]2O[C@H](C)[C@@H](O)[C@H](O)[C@@H]2O)[C@@H](O)[C@@H]1O[C@H]1O[C@H](C)[C@@H](O)[C@H](O)[C@@H]1O | > 50 µg/mL
CCCCCCCCCCCCCC(=O)NC[C@H]1O[C@@H](O[C@H]2CC[C@@]3(C)C(=CC[C@H]4[C@@H]5C[C@@H]6O[C@]7(CC[C@@H](C)CO7)[C@@H](C)[C@@H]6[C@@]5(C)CC[C@@H]43)C2)[C@H](O[C@H]2O[C@H](C)[C@@H](O)[C@H](O)[C@@H]2O)[C@@H](O)[C@@H]1O[C@H]1O[C@H](C)[C@@H](O)[C@H](O)[C@@H]1O | > 50 µg/mL
